In ChEMBL document CHEMBL1177848, “Synthesis of novel 6,6a,7,8-tetrahydro-5H-naphtho[1,2-e]pyrimido[4,5-b][1,4]diazepines under microwave irradiation as potential anti-tumor agents” (2010):
The source made the active and inactive calls. The rule behind the calls is not given here.

Legend:
SF530 = test: Growth inhibition of human SF530 cells at 1 uM after 48 hrs by sulforhodamine B assay; format: functional, cell-based
NCI-H522 = test: Growth inhibition of human NCI-H522 cells after 48 hrs by sulforhodamine B assay; format: functional; conditions: NCI-H522, 48 h
MDA-MB-231 = test: Growth inhibition of human MDA-MB-231 cells at 1 uM after 48 hrs by sulforhodamine B assay; format: functional, cell-based
LOX IMVI = test: Growth inhibition of human LOXIMVI cells at 1 uM after 48 hrs by sulforhodamine B assay; format: functional, cell-based
HCT-15 = test: Growth inhibition of human HCT15 cells at 1 uM after 48 hrs by sulforhodamine B assay; format: functional, cell-based
MCF7 [1] = test: Growth inhibition of human MCF7 cells after 48 hrs by sulforhodamine B assay; format: functional; conditions: MCF7, 48 h
SF-295 = test: Growth inhibition of human SF295 cells after 48 hrs by sulforhodamine B assay; format: functional; conditions: SF-295, 48 h
PC-3 = test: Growth inhibition of human PC3 cells at 1 uM after 48 hrs by sulforhodamine B assay; format: functional, cell-based
NCI-H322M = test: Growth inhibition of human […] cells at 1 uM after 48 hrs by sulforhodamine B assay; format: functional, cell-based
NCI-H23 [2] = test: Growth inhibition of human NCI-H23 cells at 1 uM after 48 hrs by sulforhodamine B assay; format: functional, cell-based
SR = test: Growth inhibition of human SR cells at 1 uM after 48 hrs by sulforhodamine B assay; format: functional, cell-based
TK-10 [3] = test: Growth inhibition of human TK10 cells at 1 uM after 48 hrs by sulforhodamine B assay; format: functional, cell-based
UACC-62 [4] = test: Growth inhibition of human UACC62 cells at 1 uM after 48 hrs by sulforhodamine B assay; format: functional, cell-based
NCI/ADR-RES = test: Growth inhibition of human NCI/ADR-RES cells at 1 uM after 48 hrs by sulforhodamine B assay; format: functional, cell-based
UACC-257 = test: Growth inhibition of human UACC257 cells after 48 hrs by sulforhodamine B assay; format: functional; conditions: UACC-257, 48 h
HOP-92 = test: Growth inhibition of human HOP92 cells at 1 uM after 48 hrs by sulforhodamine B assay; format: functional, cell-based
OVCAR-8 = test: Growth inhibition of human OVCAR8 cells at 1 uM after 48 hrs by sulforhodamine B assay; format: functional, cell-based
SNB-75 = test: Growth inhibition of human SNB75 cells at 1 uM after 48 hrs by sulforhodamine B assay; format: functional, cell-based
K562 = test: Growth inhibition of human K562 cells at 1 uM after 48 hrs by sulforhodamine B assay; format: functional, cell-based
BT-549 [5] = test: Growth inhibition of human BT549 cells at 1 uM after 48 hrs by sulforhodamine B assay; format: functional, cell-based
CAKI-1 [6] = test: Growth inhibition of human Caki1 cells after 48 hrs by sulforhodamine B assay; format: functional; conditions: CAKI-1, 48 h
RXF 393 = test: Growth inhibition of human RXF393 cells after 48 hrs by sulforhodamine B assay; format: functional; conditions: RXF 393, 48 h
COLO 205 = test: Growth inhibition of human COLO205 cells at 1 uM after 48 hrs by sulforhodamine B assay; format: functional, cell-based
IGROV-1 = test: Growth inhibition of human IGROV1 cells at 1 uM after 48 hrs by sulforhodamine B assay; format: functional, cell-based
CAKI-1 [7] = test: Growth inhibition of human Caki1 cells at 1 uM after 48 hrs by sulforhodamine B assay; format: functional, cell-based
A498 = test: Growth inhibition of human A498 cells after 48 hrs by sulforhodamine B assay; format: functional; conditions: A498, 48 h
MOLT-4 = test: Growth inhibition of human MOLT4 cells at 1 uM after 48 hrs by sulforhodamine B assay; format: functional, cell-based
Hs-578T = test: Growth inhibition of human Hs 578T cells at 1 uM after 48 hrs by sulforhodamine B assay; format: functional, cell-based
MDA-MB-435 = test: Growth inhibition of human MDA-MB-435 cells after 48 hrs by sulforhodamine B assay; format: functional; conditions: MDA-MB-435, 48 h
NCI-H23 [8] = test: Growth inhibition of human NCI-H23 cells after 48 hrs by sulforhodamine B assay; format: functional; conditions: NCI-H23, 48 h
NCI-H460 [9] = test: Growth inhibition of human NCI-H460 cells at 1 uM after 48 hrs by sulforhodamine B assay; format: functional, cell-based
UACC-62 [10] = test: Growth inhibition of human UACC62 cells after 48 hrs by sulforhodamine B assay; format: functional; conditions: UACC-62, 48 h
DU-145 = test: Growth inhibition of human DU145 cells at 1 uM after 48 hrs by sulforhodamine B assay; format: functional, cell-based
MCF7 [11] = test: Growth inhibition of human MCF7 cells at 1 uM after 48 hrs by sulforhodamine B assay; format: functional, cell-based
SK-MEL-5 = test: Growth inhibition of human SK-MEL-5 cells at 1 uM after 48 hrs by sulforhodamine B assay; format: functional, cell-based
HT-29 = test: Growth inhibition of human HT-29 cells at 1 uM after 48 hrs by sulforhodamine B assay; format: functional, cell-based
Malme-3M = test: Growth inhibition of human MALME-3M cells at 1 uM after 48 hrs by sulforhodamine B assay; format: functional, cell-based
TK-10 [12] = test: Growth inhibition of human TK10 cells after 48 hrs by sulforhodamine B assay; format: functional; conditions: TK-10, 48 h
SN12C = test: Growth inhibition of human SN12C cells after 48 hrs by sulforhodamine B assay; format: functional
ACHN = test: Growth inhibition of human ACHN cells after 48 hrs by sulforhodamine B assay; format: functional
NCI-H226 = test: Growth inhibition of human NCI-H226 cells after 48 hrs by sulforhodamine B assay; format: functional; conditions: NCI-H226, 48 h
BT-549 [13] = test: Growth inhibition of human BT549 cells after 48 hrs by sulforhodamine B assay; format: functional; conditions: BT-549, 48 h
U-251 = test: Growth inhibition of human U251 cells at 1 uM after 48 hrs by sulforhodamine B assay; format: functional, cell-based
786-0 = test: Growth inhibition of human 786-0 cells at 1 uM after 48 hrs by sulforhodamine B assay; format: functional, cell-based
MDA-MB-468 = test: Growth inhibition of human MDA-MB-468 cells at 1 uM after 48 hrs by sulforhodamine B assay; format: functional, cell-based
NCI-H460 [14] = test: Growth inhibition of human NCI-H460 cells after 48 hrs by sulforhodamine B assay; format: functional; conditions: NCI-H460, 48 h
T47D = test: Growth inhibition of human T47D cells after 48 hrs by sulforhodamine B assay; format: functional
[15] = read-out: LC50 (the source's name)

## Nc1nc(N)c2c(n1)NC(c1ccc(F)cc1)C1CCc3ccccc3C1=N2 (centres undefined)
SF530
  growth inhibition (GI): inactive
NCI-H522
  GI50: 5.66 µM
  LC50: 58 µM
MDA-MB-231
  growth inhibition (GI): inactive
LOX IMVI
  growth inhibition (GI): inactive
HCT-15
  growth inhibition (GI): inactive
MCF7 [1]
  GI50: 2.67 µM
  LC50: 36.3 µM
SF-295
  GI50: 8.64 µM
  LC50 (50% lethal concentration): 59.7 µM
PC-3
  growth inhibition (GI): inactive
NCI-H322M
  growth inhibition (GI): inactive
NCI-H23 [2]
  growth inhibition (GI): inactive
SR
  growth inhibition (GI): inactive
TK-10 [3]
  growth inhibition (GI): inactive
UACC-62 [4]
  growth inhibition (GI): inactive
NCI/ADR-RES
  growth inhibition (GI): inactive
UACC-257
  GI50: 5.37 µM
UACC-257; [15]
  CC50: 43.3 µM
HOP-92
  growth inhibition (GI): inactive
OVCAR-8
  growth inhibition (GI): inactive
SNB-75
  growth inhibition (GI): inactive
K562
  growth inhibition (GI): inactive
BT-549 [5]
  growth inhibition (GI): inactive
CAKI-1 [6]
  GI50: 2.72 µM
CAKI-1 [6]; [15]
  CC50: 44.6 µM
RXF 393
  GI50: 5.48 µM
  LC50 (50% lethal concentration): 60.4 µM
COLO 205
  growth inhibition (GI): inactive
IGROV-1
  growth inhibition (GI): inactive
CAKI-1 [7]
  growth inhibition (GI): inactive
A498
  GI50: 2.87 µM
  LC50: 30.6 µM
MOLT-4
  growth inhibition (GI): inactive
Hs-578T
  growth inhibition (GI): inactive
MDA-MB-435
  GI50: 2.84 µM
  LC50 (concentration killing 50% of cells): 35.1 µM
NCI-H23 [8]
  GI50: 4.06 µM
  LC50: 46.4 µM
NCI-H460 [9]
  growth inhibition (GI): inactive
UACC-62 [10]
  GI50: 3.76 µM
  LC50: 42.1 µM
DU-145
  growth inhibition (GI): inactive
MCF7 [11]
  growth inhibition (GI): inactive
SK-MEL-5
  growth inhibition (GI): inactive
HT-29
  growth inhibition (GI): inactive
Malme-3M
  growth inhibition (GI): inactive
TK-10 [12]
  GI50: 3.63 µM
  LC50 (50% lethal concentration): 50.9 µM
SN12C
  GI50: 7.8 µM
SN12C; [15]
  CC50: 50.9 µM
ACHN
  GI50: 4.96 µM
  LC50 (50% lethal concentration): 42.2 µM
NCI-H226
  GI50: 5.97 µM
  LC50: 74.4 µM
BT-549 [13]
  GI50: 3.89 µM
BT-549 [13]; [15]
  CC50: 43.5 µM
U-251
  growth inhibition (GI): inactive
786-0
  growth inhibition (GI): inactive
MDA-MB-468
  growth inhibition (GI): inactive
NCI-H460 [14]
  GI50: 3.76 µM
  LC50: 43.3 µM
T47D
  GI50: 3.86 µM
T47D; [15]
  CC50: 62.9 µM
